Here are results for six compounds from US4621090A, “Antifungal compositions” (Toyo Soda Manufacturing Co., Ltd., priority 1983, dated 1986).

Series [1] relates to Cryptococcus neoformans MTU-13002. As to the kind of experiment: Growth inhibition test. The conditions noted are these: MTU13002, 48 h, read-out: Minimum inhibitory concentration. Format: cell-based.
Series [2] concerns Aspergillus fumigatus MTU-06002. The experiment in a line: Growth inhibition test. Format: cell-based. Particulars: MTU06002, 168 h, read-out: Minimum inhibitory concentration.
Series [3] deals with Blastomyces dermatitidis MTU-17009. The experiment in a line: Growth inhibition test. The conditions noted are these: MTU17009, 336 h, read-out: Minimum inhibitory concentration. Format: cell-based.
Series [4] concerns Trichophyton violaceum MTU-19021. The experiment in a line: Growth inhibition test. Format: cell-based. Particulars: read-out: Minimum inhibitory concentration.
In series [5] the test system is Microsporum canis MTU-20010. As to the kind of experiment: Growth inhibition test. Format: cell-based. The conditions noted are these: read-out: Minimum inhibitory concentration.
The test system of series [6] is ICR mice. As to the kind of experiment: Skin irritation test using ICR mice. It is filed as in vivo. The conditions noted are these: Cutaneous, 1% direct application once a day for 14 consecutive days.
The subject of series [7] is Trichophyton mentagraphytes. As to the kind of experiment: Medical treatment of guinea pigs experimentally infected with Trichophyton mentagraphytes. The conditions noted are these: 1% emulsion once a day; for Scope of symptoms (0-4): mean of 6 guinea pigs; for Reversed cultivation: skin cut into 10 pieces, cultivated 14 days at 27° C.
Series [8] has as its system Aspergillus niger MTU-06051. As to the kind of experiment: Growth inhibition test. Format: cell-based. Particulars: read-out: Minimum inhibitory concentration.
Series [9] has as its system Histoplasma capsulatum MTU-16001. As to the kind of experiment: microbe, parasite or virus in culture. The conditions noted are these: MTU16001, 336 h, read-out: Minimum inhibitory concentration. It is filed as cell-based.
In series [10] the test system is Phialophora verrucosa MTU-23001. The experiment in a line: Growth inhibition test. It is filed as cell-based. The conditions noted are these: read-out: Minimum inhibitory concentration.
Series [11] has as its system Trichophyton mentagraphytes MTU-19031. The experiment in a line: Minimum inhibitory concentration, anti-Trichophyton mentagraphytes activity test, strain MTU-19031. Format: cell-based. Particulars: Trichophyton, MTU19031, Sabouraud's dextrose agar, 27° C., a week. The protocol:
(§1) The activity was tested by the 10 time-step dilution test, using the Sabouraud's dextrose agar culture medium (2% dextrose, 1% pepton and 1.5% agar; pH 6.5±). A platinum loopful (about 10 μl) spore suspension (prepared from a reserved strain of Trichlophyton mentagraphytes and containing 1×10^6 cells/ml) was applied in the form of drawn lines on a plate of a culture medium containing the active ingredients. The culture medium plate was kept at 27° C. for a week and then visually observed to see if any colonies had formed. The minimum inhibitory concentration was defined as the minimum concentration with which formation of distinct colonies on the culture medium plate was not observed.

The subject of series [12] is ICR mice. The experiment in a line: Acute toxicity test using ICR mice. Format: in vivo. The protocol: The acute toxicity was tested by applying active ingredients of the antifungal compositions of this invention as shown in Table 4 to ICR mice (male, age-5 weeks, 25 g ±weight, 5 mice in each group). Observation continued for 3 more weeks starting from the last administration.

The subject of series [13] is Epidermophyton floccosum MTU-21007. As to the kind of experiment: Growth inhibition test. It is filed as cell-based. Particulars: MTU21007, 336 h, read-out: Minimum inhibitory concentration.
The test system of series [14] is Microsporum gypseum MTU-20005. As to the kind of experiment: Growth inhibition test. It is filed as cell-based. The conditions noted are these: Nannizzia gypsea, read-out: Minimum inhibitory concentration.
Series [15] relates to Fonsecaea compactum MTU-22023. The experiment in a line: Growth inhibition test. Format: cell-based. The conditions noted are these: Fonsecaea compacta, read-out: Minimum inhibitory concentration.
Series [16] deals with Trichophyton mentagraphytes MTU-19024. The experiment in a line: Minimum inhibitory concentration, anti-Trichophyton mentagraphytes activity test, strain MTU-19024. Format: cell-based. The conditions noted are these: Trichophyton, MTU19024, Sabouraud's dextrose agar, 27° C., a week. The method, then:
as §1

Series [17] has as its system Fusarium pedrosoi MTU-22009. As to the kind of experiment: Growth inhibition test. Format: cell-based. The conditions noted are these: MTU22009, 168 h, after 7 days cultivation at 27° C., read-out: Minimum inhibitory concentration.
Setting [18] is: Intraperitoneal, 100 mg/kg once a day for 6 consecutive days.
The mark [19] stands for this setting: Intraperitoneal, 500 mg/kg once.
Setting [20] is: Oral, 500 mg/kg once a day for 6 consecutive days.
Where [21] appears, read: MTU19021, 168 h, after 7 days cultivation at 27° C.
Setting [22] is: MTU19021, 336 h, after 14 days cultivation at 27° C.
The mark [23] stands for this setting: MTU20010, 168 h, after 7 days cultivation at 27° C.
The mark [24] stands for this setting: MTU20010, 336 h, after 14 days cultivation at 27° C.
The mark [25] stands for this setting: after 14 days cultivation at 27° C.
Where [26] appears, read: MTU20005, 168 h, after 7 days cultivation at 27° C.
Setting [27] is: MTU20005, 336 h, after 14 days cultivation at 27° C.

≈ marks a conversion by molar mass, not a printed value. Read-outs that look alike come from different tables or passages of the source.

Consider `COc1cccc(N(C)C(=S)Oc2ccc3c(c2)CCCC3)n1` [compound 11, O--5,6,7,8-Tetrahydro-2-naphthyl N--N--(6-methoxy-2-pyridyl)-N--methylthiocarbamate], for which the MIC was found to be 0.5 µg/mL (≈ 1.52 µM) in series [1]; 0.5 µg/mL (≈ 1.52 µM) in series [2]; 0.5 µg/mL (≈ 1.52 µM) in series [3]; 0.05 µg/mL (≈ 0.152 µM) in series [4] (MTU19021, 168 h); 0.05 µg/mL (≈ 0.152 µM) in series [4] (MTU19021, 336 h); 0.05 µg/mL (≈ 0.152 µM) in series [5] (MTU20010, 168 h). Further, the MIC was 0.05 µg/mL (≈ 0.152 µM) in series [5] (MTU20010, 336 h); 0.05 µg/mL (≈ 0.152 µM) in series [8] (MTU06051, 168 h); 0.05 µg/mL (≈ 0.152 µM) in [8] (MTU06051, 336 h); 0.5 µg/mL (≈ 1.52 µM) in [9]; 0.5 µg/mL (≈ 1.52 µM) in series [10] (MTU23001, 168 h); 0.5 µg/mL (≈ 1.52 µM) in [10] (MTU23001, 336 h). Further, the MIC is 0.05 µg/mL (≈ 0.152 µM) in [11]; 0.05 µg/mL (≈ 0.152 µM) in [13]; 0.5 µg/mL (≈ 1.52 µM) in series [14] (MTU20005, 168 h); 0.05 µg/mL (≈ 0.152 µM) in series [14] (MTU20005, 336 h); 0.5 µg/mL (≈ 1.52 µM) in series [15] (MTU22023, 168 h); 0.5 µg/mL (≈ 1.52 µM) in series [15] (MTU22023, 336 h). In series [16], this compound gave an MIC of 0.05 µg/mL (≈ 0.152 µM). Also, the “Number of skin irritation symptoms” value in the series with ICR mice [6] is given as 0. In addition, the “Scope of symptoms (0-4)” value was 0.66 in series [7] (5 days after the infection); 2.0 in series [7] (9 days after the infection); 2.0 in series [7] (13 days after the infection); 0 in series [7] (17 days after the infection); 0 in [7] (21 days after the infection). Also, the Reversed cultivation in series [7] is given as 1/60. For the same compound, the Number of deaths in the series with ICR mice [12] (setting [18]), in the series with ICR mice [12] (setting [19]) and in the series with ICR mice [12] (setting [20]) was 0 each time. Moreover, the “Number of symptomatic weight decrease” value in the series on ICR mice [12] (setting [18]), in the series on ICR mice [12] (setting [19]) and in the series on ICR mice [12] (setting [20]) was 0 each time.

Turning to `COc1cccc(N(C)C(=S)Oc2cccc(C(C)(C)C)c2)n1` [compound 28, O--3-t-Butylphenyl N--(6-methoxy-2-pyridyl)-N--methylthiocarbamate], the MIC in series [4] (setting [21]), in series [4] (setting [22]), in [5] (setting [23]), in series [5] (setting [24]), in series [11] and in series [13] (setting [25]) was 0.5 µg/mL (≈ 1.51 µM) throughout. In addition, the MIC in series [14] (setting [26]), in series [14] (setting [27]) and in [16] was 0.5 µg/mL (≈ 1.51 µM) each time.

With `COc1cccc(N(C)C(=S)Oc2ccc3ccccc3c2)n1` [compound 7, O--2-Naphthyl N--methyl-N--(6-methoxy-2-pyridyl)thiocarbamate], the MIC in series [1] (after 2 days cultivation at 27° C.) worked out at 0.05 µg/mL (≈ 0.154 µM); in series [2] (after 7 days cultivation at 27° C.) it was 0.5 µg/mL (≈ 1.54 µM); in series [3] (setting [25]) it was 0.5 µg/mL (≈ 1.54 µM); in series [4] (setting [21]) it was 0.05 µg/mL (≈ 0.154 µM); in series [4] (setting [22]), 0.05 µg/mL (≈ 0.154 µM); in [5] (setting [23]), 0.05 µg/mL (≈ 0.154 µM). Also, the MIC in series [5] (setting [24]) was 0.05 µg/mL (≈ 0.154 µM); in series [8] (MTU06051, 168 h, after 7 days cultivation at 27° C.), 0.05 µg/mL (≈ 0.154 µM); in [8] (MTU06051, 336 h, after 14 days cultivation at 27° C.) it was 0.05 µg/mL (≈ 0.154 µM); in [17] it was 0.5 µg/mL (≈ 1.54 µM); in series [9] it was 0.5 µg/mL (≈ 1.54 µM); in series [10] (MTU23001, 168 h, after 7 days cultivation at 27° C.), 0.5 µg/mL (≈ 1.54 µM). Besides, the MIC in series [10] (MTU23001, 336 h, after 14 days cultivation at 27° C.) stood at 0.5 µg/mL (≈ 1.54 µM); in [11], 0.05 µg/mL (≈ 0.154 µM); in series [13] (setting [25]), 0.05 µg/mL (≈ 0.154 µM); in series [14] (setting [26]), 0.05 µg/mL (≈ 0.154 µM); in [14] (setting [27]), 0.05 µg/mL (≈ 0.154 µM); in series [15] (MTU22023, 168 h, after 7 days cultivation at 27° C.), 0.5 µg/mL (≈ 1.54 µM). For the same compound, the MIC in series [15] (MTU22023, 336 h, after 14 days cultivation at 27° C.) amounted to 0.5 µg/mL (≈ 1.54 µM); in [16], 0.05 µg/mL (≈ 0.154 µM). Further, in the series on ICR mice [6], the “Number of skin irritation symptoms” value came out at 0. Also, the “Scope of symptoms (0-4)” value in [7] (5 days after the infection) is 0; in [7] (9 days after the infection) it was 1.33; in series [7] (13 days after the infection), 1.66; in [7] (17 days after the infection), 0.66; in series [7] (21 days after the infection), 0.33. Moreover, the Reversed cultivation in series [7] is listed as 1/60. The Number of deaths with ICR mice [12] (setting [18]), in the series with ICR mice [12] (setting [19]) and in the series with ICR mice [12] (setting [20]) was 0 in each case. Also, the “Number of symptomatic weight decrease” value in the series on ICR mice [12] (setting [18]), in the series on ICR mice [12] (setting [19]) and with ICR mice [12] (setting [20]) was 0 throughout.

Regarding `CN(C)c1cccc(N(C)C(=S)Oc2ccc(C(C)(C)C)cc2)n1` [compound 36, O--4-t-Butylphenyl N--methyl-N--(6-dimethylamino-:2-pyridyl)-thiocarbamate], the MIC in [11] and in series [16] was 0.5 µg/mL (≈ 1.46 µM) each time.

With `COc1cccc(N(C)C(=S)Oc2cccc(C(C)C)c2)n1` [compound 48, O--3-Isopropylphenyl N--(6-methoxy-2-pyridyl)-N--methylthiocarbamate], the MIC in series [4] (setting [21]), in series [4] (setting [22]), in series [5] (setting [23]), in series [5] (setting [24]), in series [11] and in series [13] (setting [25]) was 0.5 µg/mL (≈ 1.58 µM) throughout. Moreover, the MIC in [14] (setting [26]), in series [14] (setting [27]) and in [16] was 0.5 µg/mL (≈ 1.58 µM) in each case.

Take `COc1cccc(N(C)C(=S)Oc2ccc(Br)cc2)n1` [compound 34, O--4-Bromophenyl N--(6-methoxy-2-pyridyl)-N--methylthiocarbamate]: the MIC in series [11] was found to be 0.05 µg/mL (≈ 0.142 µM); in series [16] it was 0.5 µg/mL (≈ 1.42 µM).
